Experimental findings from ChEMBL document CHEMBL1201862, “PubChem BioAssay data set” (2004) are described below.

The source made the active and inactive calls.

Test [1] has as its target Envelope glycoprotein gp160 (Human immunodeficiency virus 1, UniProt Q6QLK5). The experiment in a line: cell-free HIV fusion peptide-binding blockers – biochemical, uHTS, fluorescence dequenching, […] (AID 1986).
The next test has as its target Integrin alpha-L (Mus musculus, UniProt P24063). Briefly: modulators of CD8 T cell-vesicle binding, dose response, powder samples, mouse 2C CD8+ cells (AID 504565). The format is functional.
The next test relates to T-cell. The experiment in a line: loss of vesicle association with mouse CD8+ T cells – mouse 2C CD8+ T cells, flow cytometry, dose response (AID 485284). The format is functional.
In test [2] the target is T1, Rac GTPase-activating protein 1 (Homo sapiens, UniProt Q9H0H5).
T1 sequence (Q9H0H5 whole entry): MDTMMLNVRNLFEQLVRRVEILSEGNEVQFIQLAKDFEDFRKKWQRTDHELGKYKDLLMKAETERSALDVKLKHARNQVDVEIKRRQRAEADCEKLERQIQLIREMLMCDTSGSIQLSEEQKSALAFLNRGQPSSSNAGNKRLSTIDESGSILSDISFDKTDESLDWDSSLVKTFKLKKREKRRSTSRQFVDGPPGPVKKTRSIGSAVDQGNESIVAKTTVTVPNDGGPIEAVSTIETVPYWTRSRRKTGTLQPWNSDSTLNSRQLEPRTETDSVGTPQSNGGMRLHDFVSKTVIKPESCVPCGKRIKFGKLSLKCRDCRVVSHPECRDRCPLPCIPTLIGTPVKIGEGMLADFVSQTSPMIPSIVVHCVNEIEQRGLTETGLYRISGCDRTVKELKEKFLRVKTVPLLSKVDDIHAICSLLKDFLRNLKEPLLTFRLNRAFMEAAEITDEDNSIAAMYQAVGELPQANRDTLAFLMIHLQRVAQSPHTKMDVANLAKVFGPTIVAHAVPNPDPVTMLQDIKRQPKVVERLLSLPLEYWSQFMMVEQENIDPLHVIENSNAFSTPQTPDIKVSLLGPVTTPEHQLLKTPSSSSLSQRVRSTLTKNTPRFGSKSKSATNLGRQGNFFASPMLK
The experiment in a line: blockers of MgcRacGAP-driven Rac1 GTP hydrolysis – biochemical, ADP Hunter fluorescence, primary and confirmatory, confirmation (AID 624330). Type of test: functional.

In test [3] the target is T2, Small ubiquitin-related modifier 1 (Homo sapiens, UniProt P63165). The experiment in a line: SUMO1 protein-protein binding blockers, potency – biochemical, FRET, dose response (AID 624383). Type of test: functional. Particulars: read-out: IC50_Mean.
Another test addresses T3, ORF 73 (Human herpesvirus 8, UniProt O40947).
T3 sequence (O40947 whole entry): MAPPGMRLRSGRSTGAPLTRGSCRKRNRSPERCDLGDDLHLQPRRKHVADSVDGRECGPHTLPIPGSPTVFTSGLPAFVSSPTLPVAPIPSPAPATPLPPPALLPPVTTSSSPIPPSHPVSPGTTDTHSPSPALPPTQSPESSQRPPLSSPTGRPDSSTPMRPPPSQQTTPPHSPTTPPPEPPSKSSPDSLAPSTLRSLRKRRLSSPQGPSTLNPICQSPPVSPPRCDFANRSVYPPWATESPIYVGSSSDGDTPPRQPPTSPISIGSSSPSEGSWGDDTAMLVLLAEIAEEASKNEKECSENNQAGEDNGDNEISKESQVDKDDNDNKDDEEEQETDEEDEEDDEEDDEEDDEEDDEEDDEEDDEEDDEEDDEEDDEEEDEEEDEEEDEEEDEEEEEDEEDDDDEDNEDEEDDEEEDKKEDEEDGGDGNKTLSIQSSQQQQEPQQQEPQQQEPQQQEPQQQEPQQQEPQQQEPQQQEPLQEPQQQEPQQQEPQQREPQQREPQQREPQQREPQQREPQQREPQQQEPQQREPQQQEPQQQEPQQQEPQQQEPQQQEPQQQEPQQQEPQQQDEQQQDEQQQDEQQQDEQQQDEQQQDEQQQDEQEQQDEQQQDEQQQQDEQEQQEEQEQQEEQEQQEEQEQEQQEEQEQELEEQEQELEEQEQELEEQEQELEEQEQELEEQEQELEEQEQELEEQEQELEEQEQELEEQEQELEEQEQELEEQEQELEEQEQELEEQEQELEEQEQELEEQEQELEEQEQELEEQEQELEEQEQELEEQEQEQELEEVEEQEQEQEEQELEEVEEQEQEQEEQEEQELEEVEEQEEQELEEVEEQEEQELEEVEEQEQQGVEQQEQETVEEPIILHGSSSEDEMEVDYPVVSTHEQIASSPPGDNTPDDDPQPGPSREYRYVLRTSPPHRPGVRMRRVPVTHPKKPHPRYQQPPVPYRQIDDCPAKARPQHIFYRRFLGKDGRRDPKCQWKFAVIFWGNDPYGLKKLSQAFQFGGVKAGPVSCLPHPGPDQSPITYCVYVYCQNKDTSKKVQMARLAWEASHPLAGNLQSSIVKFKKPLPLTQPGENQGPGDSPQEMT
The experiment in a line: KSHV LANA DNA-binding disruption – biochemical, fluorescence polarization, cherry-picked samples, dose response (AID 504725).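 Note: fluorescence polarization of a labeled DNA duplex reporting LANA DNA binding; potency is for inhibitors that block LANA binding to the DNA.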 More on the design: species or system Human gammaherpesvirus 8.

Another test relates to Salmon testes DNA. Briefly: acridine orange-DNA binding displacement – biochemical, fluorescence polarization, cherry-picked samples, set 2, artefact control for KSHV LANA DNA-binding inhibitor project, dose response (AID 504727). More on the design: species or system Salmonidae.
The target in test [4] is T2, Small ubiquitin-related modifier 1. Briefly: SUMO1 protein interaction blockers, potency – biochemical, fluorescence polarization, uHTS hits, dose response (AID 624382). The format is functional. Particulars: read-out: IC50_Mean.
The next test concerns the target Genome polyprotein (dengue virus type 2, UniProt P29990). The experiment in a line: flavivirus cap methylation enzyme inhibition – biochemical, confirmation dose response, primary screen (AID 588689). Type of test: functional.
The target of test [5] is Melanin-concentrating hormone receptor 1 (Homo sapiens, UniProt Q99705). Briefly: Late-stage fluorescence-based counterscreen for antagonists of the G-protein coupled receptor 7 (GPR7): cell-based dose response assay to identify antagonists of the melanin-concentrating hormone receptor 1 (MCHR1). [Related pubchem assays (depositor defined):AID1861, AID1880, AID1952, AID2148, AID2251, AID2257, AID485339]. The format is functional.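 Note: stimulated with 30 nM MCH peptide agonist.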

For test [6], the target named is T4, Neuropeptides B/W receptor type 1 (Homo sapiens, UniProt P48145).
T4 sequence (P48145 whole entry): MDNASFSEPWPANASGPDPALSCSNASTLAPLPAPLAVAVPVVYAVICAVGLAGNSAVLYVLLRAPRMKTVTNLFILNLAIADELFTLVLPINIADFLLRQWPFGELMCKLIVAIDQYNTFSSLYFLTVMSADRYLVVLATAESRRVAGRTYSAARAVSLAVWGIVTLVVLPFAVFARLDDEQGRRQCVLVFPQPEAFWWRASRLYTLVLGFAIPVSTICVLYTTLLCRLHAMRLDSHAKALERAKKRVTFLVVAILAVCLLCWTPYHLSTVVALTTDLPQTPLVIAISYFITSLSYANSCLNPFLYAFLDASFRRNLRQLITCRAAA
The experiment in a line: human NPBW1 receptor blockade, IC50 – cell-based, fluorescence, dose response, late-stage follow-up (AID 463251). Type of test: functional.

Test [7] addresses G-protein coupled receptor 55 (Homo sapiens, UniProt Q9Y2T6). The experiment in a line: selective activators of receptor GPR55 – imaging, U2OS cells, beta-arrestin-GFP redistribution, primary screen (AID 1961). Type of test: functional.
Test [8] concerns the target T5, Tyrosine-protein phosphatase non-receptor type 22 (Homo sapiens, UniProt Q9Y2R2). The experiment in a line: inhibition of lymphoid tyrosine phosphatase LYP – biochemical, pCAP fluorogenic substrate, fluorescence, set 3, SAR follow-up (AID 449727). The format is functional.
In test [9] the target is T5, Tyrosine-protein phosphatase non-receptor type 22. Briefly: SAR LYP1 Fluorescent Assay using OMFP substrate for In Vitro dose response studies - Set 3. [Related pubchem assays (depositor defined):AID1779, AID1784, AID2140, AID2686]. Type of test: functional.
Test [10] concerns the target Tyrosine-protein phosphatase non-receptor type 12 (Homo sapiens, UniProt Q05209). Briefly: SAR Selectivity Analysis of small molecule inhibitors of PEST using pCAP in a fluorescence assay. [Related pubchem assays (depositor defined):AID1779, AID1784, AID2135]. The format is functional.
For the next test, the target named is Hexokinase (Trypanosoma brucei, UniProt Q38C41). The experiment in a line: Confirmation assay for inhibitors of Trypanosoma brucei hexokinase 1-Analogue-first series. [Related pubchem assays (depositor defined):AID1430, AID1632, AID2516, AID2560, AID2579, AID2600, AID449725, AID492951]. Type of test: functional.
Test [11] is described as follows: Fluorescence-based cell-based high throughput dose response assay for inhibitors of the interaction of nucleotide-binding oligomerization domain containing 2 (NOD2) and the receptor-interacting serine-threonine kinase 2 (RIPK2). The note with it: Homo sapiens. Type of test: functional.
For test [12], the target named is Glucose-6-phosphate 1-dehydrogenase (Homo sapiens, UniProt P11413). Briefly: inhibition of Homo sapiens G6PD, dose series – biochemical, fluorescence, selectivity assay for P. falciparum G6PD inhibitor project, dose response (AID 504792). Type of test: functional.
For a further test, the target named is Beta Lactamase (Pseudomonas aeruginosa, UniProt Q932Y6). Briefly: BLA reporter interference, concentration series – BLA reporter cells, FRET fluorescence, artefact control for NOD2-RIPK2 interaction inhibitor project, dose response (AID 651552). The format is functional, cell-based.
The nature of test [13]: Luminescence-based counterscreen assay for KLF5 inhibitors: dose response cell-based high throughput screening assay to identify cytotoxic compounds using the IEC-6 intestinal epithelial cell line. [Related pubchem assays: 1700 (Primary screen.), 1834 (Confirmation screen.), 1858 (Summary AID.), 1905 (Counterscreen.)]. The format is functional.
The next test relates to DLD-1. The experiment in a line: DLD-1 cell viability reduction – luminescence, round 1, cytotoxicity control for KLF5 inhibitor project, late-stage follow-up (AID 485338). The format is functional, cell-based. Particulars: Homo sapiens.

T5 sequence (Q9Y2R2 whole entry): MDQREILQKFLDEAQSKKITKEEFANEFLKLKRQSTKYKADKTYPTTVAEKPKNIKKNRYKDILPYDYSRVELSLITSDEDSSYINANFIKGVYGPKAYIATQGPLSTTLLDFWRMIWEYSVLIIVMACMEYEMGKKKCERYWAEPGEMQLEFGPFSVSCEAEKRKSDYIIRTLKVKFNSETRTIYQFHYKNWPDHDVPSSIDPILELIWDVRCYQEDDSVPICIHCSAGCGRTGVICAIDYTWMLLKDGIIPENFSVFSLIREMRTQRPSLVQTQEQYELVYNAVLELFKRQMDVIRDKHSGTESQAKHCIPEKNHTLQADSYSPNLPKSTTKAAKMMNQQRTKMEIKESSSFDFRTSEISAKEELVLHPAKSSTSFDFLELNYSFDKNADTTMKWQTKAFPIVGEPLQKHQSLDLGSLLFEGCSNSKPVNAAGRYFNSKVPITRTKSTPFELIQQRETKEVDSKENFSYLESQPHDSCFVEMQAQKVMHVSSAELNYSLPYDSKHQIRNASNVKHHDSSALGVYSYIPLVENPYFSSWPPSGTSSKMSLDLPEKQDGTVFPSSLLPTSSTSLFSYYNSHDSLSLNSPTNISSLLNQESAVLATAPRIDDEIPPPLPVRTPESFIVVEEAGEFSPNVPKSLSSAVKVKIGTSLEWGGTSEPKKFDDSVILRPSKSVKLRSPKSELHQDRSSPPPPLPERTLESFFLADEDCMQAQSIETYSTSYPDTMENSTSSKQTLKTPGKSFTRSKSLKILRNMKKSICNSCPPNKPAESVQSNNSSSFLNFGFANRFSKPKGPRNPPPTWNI
T2 sequence (P63165 whole entry): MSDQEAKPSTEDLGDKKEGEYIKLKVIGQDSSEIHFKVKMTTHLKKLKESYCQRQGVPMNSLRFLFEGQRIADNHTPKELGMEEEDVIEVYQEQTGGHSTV
Sequence of Tyrosine-protein phosphatase non-receptor type 12 (Q05209 whole entry): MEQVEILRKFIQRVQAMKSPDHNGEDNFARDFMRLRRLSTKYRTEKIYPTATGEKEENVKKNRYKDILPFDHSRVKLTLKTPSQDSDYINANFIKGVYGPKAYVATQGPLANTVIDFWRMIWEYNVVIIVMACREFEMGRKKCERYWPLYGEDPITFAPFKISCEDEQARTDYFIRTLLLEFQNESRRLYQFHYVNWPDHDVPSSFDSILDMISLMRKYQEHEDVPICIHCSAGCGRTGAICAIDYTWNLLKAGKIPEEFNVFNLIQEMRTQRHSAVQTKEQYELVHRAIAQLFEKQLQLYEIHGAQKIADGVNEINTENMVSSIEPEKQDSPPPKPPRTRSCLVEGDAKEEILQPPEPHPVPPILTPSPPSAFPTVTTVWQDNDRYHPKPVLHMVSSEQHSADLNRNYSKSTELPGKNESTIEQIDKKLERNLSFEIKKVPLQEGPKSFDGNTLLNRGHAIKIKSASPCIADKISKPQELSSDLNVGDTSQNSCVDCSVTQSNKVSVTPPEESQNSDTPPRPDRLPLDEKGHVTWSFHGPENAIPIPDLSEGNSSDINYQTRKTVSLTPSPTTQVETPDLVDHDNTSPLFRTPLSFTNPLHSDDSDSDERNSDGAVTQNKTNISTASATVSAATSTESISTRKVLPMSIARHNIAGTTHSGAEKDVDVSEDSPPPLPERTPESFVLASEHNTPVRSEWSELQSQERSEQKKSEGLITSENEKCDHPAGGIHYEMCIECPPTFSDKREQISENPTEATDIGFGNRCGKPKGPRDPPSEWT
Sequence of Genome polyprotein (P29990 2492-3391 limits assumed): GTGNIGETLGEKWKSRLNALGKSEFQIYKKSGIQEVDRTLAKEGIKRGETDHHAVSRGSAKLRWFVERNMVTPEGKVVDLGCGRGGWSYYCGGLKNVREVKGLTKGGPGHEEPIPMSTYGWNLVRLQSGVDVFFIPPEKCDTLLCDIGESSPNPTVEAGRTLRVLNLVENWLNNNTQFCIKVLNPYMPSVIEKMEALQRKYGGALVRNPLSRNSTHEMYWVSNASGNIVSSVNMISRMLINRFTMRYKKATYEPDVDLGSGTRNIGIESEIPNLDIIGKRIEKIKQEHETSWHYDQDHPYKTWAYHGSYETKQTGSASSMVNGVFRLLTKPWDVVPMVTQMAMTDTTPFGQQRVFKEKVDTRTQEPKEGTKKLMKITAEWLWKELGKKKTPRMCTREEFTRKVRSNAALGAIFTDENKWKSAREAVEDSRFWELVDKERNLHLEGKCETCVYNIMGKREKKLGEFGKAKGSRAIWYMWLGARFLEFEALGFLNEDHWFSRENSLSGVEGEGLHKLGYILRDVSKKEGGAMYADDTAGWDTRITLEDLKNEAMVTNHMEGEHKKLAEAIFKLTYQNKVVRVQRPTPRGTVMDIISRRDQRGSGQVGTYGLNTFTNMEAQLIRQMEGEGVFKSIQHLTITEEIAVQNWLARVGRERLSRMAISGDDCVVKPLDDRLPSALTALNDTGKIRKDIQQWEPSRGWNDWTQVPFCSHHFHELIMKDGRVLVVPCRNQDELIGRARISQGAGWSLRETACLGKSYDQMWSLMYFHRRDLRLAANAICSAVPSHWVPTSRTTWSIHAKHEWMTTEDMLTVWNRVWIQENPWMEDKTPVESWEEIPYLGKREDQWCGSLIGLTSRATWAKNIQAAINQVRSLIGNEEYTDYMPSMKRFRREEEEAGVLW
Sequence of Melanin-concentrating hormone receptor 1 (Q99705 whole entry): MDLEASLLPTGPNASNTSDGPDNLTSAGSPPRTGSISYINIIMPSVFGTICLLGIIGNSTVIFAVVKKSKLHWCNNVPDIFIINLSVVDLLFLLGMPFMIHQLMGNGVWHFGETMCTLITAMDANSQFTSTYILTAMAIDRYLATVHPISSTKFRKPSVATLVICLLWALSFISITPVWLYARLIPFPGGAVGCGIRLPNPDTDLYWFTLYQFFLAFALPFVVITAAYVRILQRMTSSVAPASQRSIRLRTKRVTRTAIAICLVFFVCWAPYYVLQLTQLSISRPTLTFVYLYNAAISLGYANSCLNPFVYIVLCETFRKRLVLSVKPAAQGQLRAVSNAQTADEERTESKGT
Sequence of Glucose-6-phosphate 1-dehydrogenase (P11413 whole entry): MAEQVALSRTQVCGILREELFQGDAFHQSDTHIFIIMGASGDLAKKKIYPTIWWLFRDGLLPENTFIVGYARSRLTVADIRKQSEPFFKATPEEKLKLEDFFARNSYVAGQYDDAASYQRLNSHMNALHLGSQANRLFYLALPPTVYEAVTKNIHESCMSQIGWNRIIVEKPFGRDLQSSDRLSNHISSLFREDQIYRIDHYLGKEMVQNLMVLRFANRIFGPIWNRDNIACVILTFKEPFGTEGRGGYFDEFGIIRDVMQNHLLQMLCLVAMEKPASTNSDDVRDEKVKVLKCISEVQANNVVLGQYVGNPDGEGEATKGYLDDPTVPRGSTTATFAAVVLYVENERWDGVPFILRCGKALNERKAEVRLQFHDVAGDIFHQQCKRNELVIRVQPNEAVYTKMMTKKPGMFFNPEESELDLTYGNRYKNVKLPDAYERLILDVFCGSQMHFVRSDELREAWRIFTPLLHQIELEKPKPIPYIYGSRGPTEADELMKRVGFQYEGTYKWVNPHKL
Sequence of Integrin alpha-L (P24063 whole entry): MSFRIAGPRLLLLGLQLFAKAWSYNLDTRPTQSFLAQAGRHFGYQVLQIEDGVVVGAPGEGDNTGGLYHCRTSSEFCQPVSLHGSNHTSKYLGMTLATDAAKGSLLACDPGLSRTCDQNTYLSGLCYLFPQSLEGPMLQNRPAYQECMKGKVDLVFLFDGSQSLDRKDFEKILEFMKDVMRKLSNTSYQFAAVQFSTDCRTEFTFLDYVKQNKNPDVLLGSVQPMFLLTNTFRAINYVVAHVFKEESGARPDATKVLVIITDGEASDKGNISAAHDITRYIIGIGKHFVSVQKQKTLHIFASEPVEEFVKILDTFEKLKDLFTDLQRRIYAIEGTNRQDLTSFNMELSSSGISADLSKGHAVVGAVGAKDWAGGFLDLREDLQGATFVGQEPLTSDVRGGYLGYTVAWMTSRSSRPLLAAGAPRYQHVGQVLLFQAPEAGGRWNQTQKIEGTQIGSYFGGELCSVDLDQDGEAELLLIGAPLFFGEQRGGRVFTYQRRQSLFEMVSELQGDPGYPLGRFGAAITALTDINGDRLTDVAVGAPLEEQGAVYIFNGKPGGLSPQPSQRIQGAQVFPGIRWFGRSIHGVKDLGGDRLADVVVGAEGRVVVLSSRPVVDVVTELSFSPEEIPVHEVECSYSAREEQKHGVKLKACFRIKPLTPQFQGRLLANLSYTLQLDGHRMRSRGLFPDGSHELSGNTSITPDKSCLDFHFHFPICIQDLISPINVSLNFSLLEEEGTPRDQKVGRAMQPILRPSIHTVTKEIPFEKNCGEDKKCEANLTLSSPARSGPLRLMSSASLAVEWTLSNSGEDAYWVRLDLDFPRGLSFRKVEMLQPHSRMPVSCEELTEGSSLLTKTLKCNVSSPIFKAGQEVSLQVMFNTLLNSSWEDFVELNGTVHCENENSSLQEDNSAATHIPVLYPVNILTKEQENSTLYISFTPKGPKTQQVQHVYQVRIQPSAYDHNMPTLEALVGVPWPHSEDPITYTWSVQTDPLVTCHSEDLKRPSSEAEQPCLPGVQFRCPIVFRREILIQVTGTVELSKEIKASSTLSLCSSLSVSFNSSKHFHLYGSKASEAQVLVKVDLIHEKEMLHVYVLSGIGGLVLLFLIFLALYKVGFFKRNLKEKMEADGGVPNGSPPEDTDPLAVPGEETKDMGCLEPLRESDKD
Sequence of G-protein coupled receptor 55 (Q9Y2T6 whole entry): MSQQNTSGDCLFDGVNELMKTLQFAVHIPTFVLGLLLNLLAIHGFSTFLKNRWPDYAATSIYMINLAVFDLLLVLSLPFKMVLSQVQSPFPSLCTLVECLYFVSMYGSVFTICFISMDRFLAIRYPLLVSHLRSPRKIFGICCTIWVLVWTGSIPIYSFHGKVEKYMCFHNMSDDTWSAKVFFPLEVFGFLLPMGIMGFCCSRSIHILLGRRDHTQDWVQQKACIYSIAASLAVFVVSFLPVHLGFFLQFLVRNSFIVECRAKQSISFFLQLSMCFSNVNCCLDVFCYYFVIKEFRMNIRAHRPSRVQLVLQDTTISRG

On to `OCCOCCN1CCN(C(c2ccccc2)c2ccc(Cl)cc2)CC1` (stereo unspecified) [HYDROXYZINE PAMOATE], for which the IC50 in [1] was 6.31 µM (active).
As to `CCOC(=O)C1CCCN(S(=O)(=O)c2ccc(F)c(C(=O)Nc3ccc(F)c(F)c3)c2)C1` (stereo unspecified), the EC50 on Integrin alpha-L was 19.3 µM (active); in the test with T-cell, 0.202 µM (active).
Take `Nc1cccc2c(O)cc(S(=O)(=O)O)cc12`: the IC50 in test [2] is 98.6 µM (active); in test [3] it was 5.35 µM (active); in test [4], > 66.6 µM (inactive); at Genome polyprotein, 42.7 µM (active). Further, the concentration at half-maximal activity (AC50) was 29.7 µM (active) at ORF 73 and 132 µM (active) in the test with Salmon testes DNA.
With `O=C(C1CCCCN1Cc1cccc(Cl)c1)N1CCN(c2ccc([N+](=O)[O-])cc2)CC1` (stereo unspecified), the IC50 is 2.9 µM (active) in [5] and 2.8 µM (active) in test [6].
For `Cc1ccc(C)n1-n1cnc2sc(-c3ccccc3)cc2c1=O`, the EC50 in [7] is 8.51 µM (active).
With `CCOC(=O)C1=C(C)N=c2sc(=Cc3ccc(OCC(=O)O)cc3)c(=O)n2C1c1ccc(OC(C)C)cc1` (stereo unspecified), the values for the IC50 in test [8], in [9] and in test [10] were 25.7 µM (active), 45.1 µM (active) and 3.85 µM (active), respectively.
For `Cc1ccc(NC(=O)Cn2sc3ccccc3c2=O)cc1`, the IC50 on Hexokinase was 5.18 µM (active); in [11], 5.7 µM (active); in test [12], 15.1 µM (active); on Beta Lactamase, 17.7 µM (inactive).
For the molecule `CCOC(=O)c1sc(NC(=O)c2cc3c(s2)CCC(C)C3)nc1C` (stereo unspecified), the IC50 is > 39.8 µM (not active) in [13] and 19.3 µM (inactive) in the test on DLD-1.
